Experiments:
[1] = target: T1, human dopamine D1 receptor (Homo sapiens, UniProt P21728); assay: Evaluation of positive allosteric modulating action (PAM action): left shift of dopamine dose-response curve (cAMP, TR-FRET); format: cell-based; conditions: human dopamine D1 receptor stably-expressing CHO cells
T1 construct: expressed in transfected cells
Procedure: Buffer solution for assay=αMEM containing 1 mM IBMX
Buffer solution for dilution=αMEM containing 1 mM IBMX and 0.8 mM ascorbic acid
Evaluation of Positive allosteric modulating action (PAM action)
The PAM action of the compound of the present invention was evaluated by the ratio of a left shift of a dopamine dose response curve.
The left shift means that the dopamine dose response curve, in which the logarithm of dose is set to abscissa (X axis) and the response (in this test, cAMP concentration) is set to ordinate (Y axis), is parallely shifted in the negative direction of the X axis by the addition of PAM.
The coding sequence of a human dopamine D1 receptor (Accession No.: NM_000794.3) was amplified by PCR, and was subcloned into a pEF-BOS vector. […]
To measure cAMP, LANCE Ultra cAMP kit (PerkinElmer Inc., LANCE is a registered trademark) was used. […] The plate was incubated at room temperature for 1 hour, and then the fluorescence intensity at 665 nm and 620 nm was measured (excitation wavelength: 320 nm, fluorescence wavelength: 665 nm, 620 nm) by TR-FRET method using a plate reader (2103 Multilabel Plate Reader (registered trademark Envision), PerkinElmer, Inc.). The fluorescence intensity ratio [(fluorescence intensity at 665 nm)/(fluorescence intensity at 620 nm)×10^4] of each well was calculated, and was used for analysis. […]

male Long Evans rats = assay: Attentional set-shifting task (sub-chronic PCP rats); format: in vivo, rat; conditions: single oral administration after CD
Procedure: Attentional Set-Shifting Task
The compound of the present invention was evaluated by an attentional set-shifting task test.
The attentional set-shifting task test, as in WCST, is a test for measuring flexibility with respect to the change of a rule (clue). The effect on executive function disorder which is one of higher brain dysfunctions can be evaluated by this test.
After allowing the mouse to learn a task that food reward is obtained if there is a clue, in the case where the clue is shifted within a dimension (for example, the clue is changed from a form to another form), both normal animal and pathological animal having abnormality in the prefrontal cortex of the brain (hereinafter, referred to as “pathological animal”) can discriminate clues to obtain food reward. However, after allowing the mouse to learn a task of obtaining food reward by a clue, in the case where the clue is shifted to the outside of a dimension (for example, the clue is changed from a form to aroma), the normal animal can discriminate a clue of food, but the pathological animal cannot discriminate the clue of food. This test puts this behavior to practical use.
The following experiments were carried out with reference to European Journal of Neuroscience, 2005, vol. 21, p. 1070-1076, which was partially modified. […]

ddY male mouse = assay: Y-maze test (spontaneous alternation behavior, MK-801-induced cognitive impairment); format: in vivo; conditions: single oral administration 1 hour before test, MK-801 0.15 mg/kg i.p.
Procedure: The improvement effect on cognitive impairment of the compound of the present invention was evaluated using Y-maze test that is an experimental system of spontaneous alternation behavior.
As the Y-maze, a maze in which three runways, each having a length of 40 cm, a height of 13 cm, a floor width of 3 cm, and an upper portion width of 10 cm, are attached to each other in a Y shape at an angle of 120°, was used. […]
After the aforementioned mouse was placed at the end of any runway in the Y-maze, the mouse was freely searched for eight minutes. The number of times the mouse has entered the runway was counted, and this counted number of times was set to the total entry number. The number of times the mouse has continuously entered three different runways (for example, when three arms were represented by a, b, and c, respectively, in the case where the order of entry of runways is abccbacab, it was counted by 4) was set to spontaneous alternation behavior number. Spontaneous alternation behavior rate is calculated by Calculation Equation: Spontaneous alternation behavior rate=[spontaneous alternation behavior number/(total entry number−2)]×100. The calculated spontaneous alternation behavior rate was set to an index of spontaneous alternation behavior.
The measured value was represented by average value f standard error for each group. […]

T1 sequence (P21728 whole entry): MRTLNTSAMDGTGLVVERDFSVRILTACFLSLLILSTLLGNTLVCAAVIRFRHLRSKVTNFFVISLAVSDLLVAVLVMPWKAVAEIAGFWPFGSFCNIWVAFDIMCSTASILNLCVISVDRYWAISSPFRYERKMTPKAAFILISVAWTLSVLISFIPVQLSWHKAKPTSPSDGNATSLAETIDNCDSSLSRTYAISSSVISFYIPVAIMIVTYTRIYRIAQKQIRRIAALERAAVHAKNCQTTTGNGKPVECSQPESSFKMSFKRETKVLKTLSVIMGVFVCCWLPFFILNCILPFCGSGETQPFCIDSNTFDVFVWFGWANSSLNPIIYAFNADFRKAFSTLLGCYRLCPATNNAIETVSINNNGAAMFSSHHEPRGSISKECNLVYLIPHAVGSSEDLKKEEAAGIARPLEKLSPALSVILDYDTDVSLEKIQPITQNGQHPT

O=C(Cn1c(=O)oc2cccc(F)c21)N1CCCn2cc(-c3ccc(C(F)(F)F)cc3)nc2C1 [Ex1, 4-fluoro-3-(2-oxo-2-{2-[4-(trifluoromethyl)phenyl]-6,7-dihydro-5H-imidazo[1,2-a][1,4]diazepin-8(9H)-yl}ethyl)-1,3-benzoxazol-2(3H)-one]
EC50 2-fold potentiation (test drug concentration by which the EC50 of dopamine is potentiated in 2-fold) [1]: 0.061 µM
Dat3: minimum effective dose (improving the executive function disorder, ED task) (male Long Evans rats): 0.003 mg/kg
Dat2: minimum effective dose (significantly improving spontaneous alternation behavior) (ddY male mouse): 0.03 mg/kg
